Laboratory results reported in patent US8551999B2, “Heterocyclic compound and pharmaceutical composition thereof” (Otsuka Pharmaceutical Co., Ltd., priority 2007, dated 2013).
pIC50: −log10 of the molar value. Where a name gives a salt, the structure may show the parent alone.

Experiments:
[1] = test system: LI90 cells, a human hepatic stellate cell line; assay: Inhibitory effect on collagen synthesis (in vitro); assay type: cell-based; settings: in the presence of recombinant human TGF-β1, 3H-proline labelled collagen in supernatant
Protocol: Inhibitory Effect on Collagen Synthesis (In Vitro)
LI90 cells, a human hepatic stellate cell line, were suspended in DMEM (Dulbecco's modified eagle medium) supplemented with 10% inactivated FBS (fetal bovine serum), seeded on a 12-well plate and cultured in a CO2 incubator (preset temperature: 37° C., preset CO2 concentration: 5%). After being cultured for 24 hours, the cells were washed with D-PBS (Dulbecco's phosphate buffered saline), placed in MEM (Eagle's minimum essential medium) supplemented with 0.1% inactivated FBS and then cultured in a CO2 incubator. After being cultured for 3 days, the cells were again washed with D-PBS, placed in MEM (Eagle's minimum essential medium) supplemented with 0.1% inactivated FBS and treated with or without a test compound in the presence of […] recombinant human TGF-β1 (transforming growth factor-β1) in a CO2 incubator for 16 hours. After the incubation, the cells were washed with D-PBS and the medium was replaced with MEM containing 0.25 mM ascorbate. A radio-labeled compound, ^3H-proline, was then added to the culture medium to radio-label the collagen proteins produced. After being cultured for 24 hours, the supernatant was collected and the collagen proteins were extracted from the supernatant as acid-soluble fractions. The amount of collagen produced was determined by measuring the radioactivity contained in the fractions. A concentration of test compound that produced 50% inhibition [IC50 value (nM)] on collagen synthesis was calculated by comparing the radioactivity count in a supernatant of test-compound-treated cells with that of untreated cells (control).

Row | melting point | pIC50 [1] | Structure (SMILES)
1 | 227.5 to 230.3 °C | > 8.00 | Br.CN(C(=O)c1ccc(OC(F)(F)F)cc1)c1ccc(Oc2ccc3cc(C(=O)N4CCN(Cc5ccc(OC(CF)CF)cc5)CC4)n(C)c3c2)nc1 [Example 279, N-[6-(2-{4-[4-(2-Fluoro-1-fluoromethylethoxy)benzyl]piperazine-1-carbonyl}-1-methyl-1H-indol-6-yloxy)pyridin-3-yl]-N-methyl-4-tri-fluoromethoxybenzamide hydrobromide]
2 |  | > 8.00 | COc1ccc(CN(C)C2CCN(C(=O)c3cc4cc(Oc5ccc(NC(=O)c6ccc(C(F)(F)F)cc6)cn5)ccc4n3C)CC2)cc1 [Example 232, N-[6-(2-{4-[(4-Methoxybenzyl)methylamino]piperidine-1-carbonyl}-1-methyl-1H-indol-5-yloxy)pyridin-3-yl]-4-trifluoromethyl-benzamide oxalate]
3 | 246 to 249 °C (dec.) | > 8.00 | COc1ccc(/C=C/CN2CCN(C(=O)c3cc4cc(Oc5ccc(NC(=O)c6ccc(C(F)(F)F)cc6)cn5)ccc4n3C)CC2)cc1.CS(=O)(=O)O [Example 357, N-[6-(2-{4-[(E)-3-(4-Methoxyphenyl)allyl]piperazine-1-carbonyl}-1-methyl-1H-indol-5-yloxy)pyridin-3-yl]-4-trifluoromethyl-benzamide methanesulfonate]
4 | 184 to 184.2 °C | > 8.00 | Cc1ccc(S(=O)(=O)N(C)c2ccc(Oc3ccc4cc(C(=O)N5CCN(Cc6ccc(OCC(F)(F)F)cc6)CC5)[nH]c4c3)nc2)cc1 [Example 41, 4,N-Dimethyl-N-[6-(2-{4-[4-(2,2,2-trifluoroethoxy)benzyl]-piperazine-1-carbonyl}-1H-indol-6-yloxy)pyridin-3-yl]benzene-sulfonamide]
5 |  | > 8.00 | CC(C)CN1CCN(C(=O)c2cc3cc(Oc4ccc(NC(=O)c5ccc(C(F)(F)F)cc5)cn4)ccc3n2C)CC1 [Example 547, N-{6-[2-(4-isobutylpiperazine-1-carbonyl)-1-methyl-1H-indol-5-yloxy]pyridin-3-yl}-4-trifluoromethylbenzamide]
6 | 191.2 to 193 °C | > 8.00 | CC(C)Oc1ccc(CN2CCN(C(=O)c3cc4ccc(Oc5ncc(N(C)S(=O)(=O)c6ccc(Cl)c(Cl)c6)cn5)cc4n3C)CC2)cc1 [Example 43, 3,4-Dichloro-N-(2-{2-[4-(4-isopropoxybenzyl)piperazine-1-carbonyl]-1-methyl-1H-indol-6-yloxy}pyrimidin-5-yl)-N-methyl-benzenesulfonamide]
7 | 179 to 180 °C | > 8.00 | COc1ccc(CN2CCN(C(=O)c3cc4cc(Oc5ncc(NC(=O)c6ccc(C(F)(F)F)cc6)cn5)ccc4n3C)CC2)cc1 [Example 380, N-(2-{2-[4-(4-Methoxybenzyl)piperazine-1-carbonyl]-1-methyl-1H-indol-5-yloxy}pyrimidin-5-yl)-4-trifluoromethylbenzamide]
8 | 218.9 to 220.8 °C | > 8.00 | Br.Cn1c(C(=O)N2CCN(Cc3cnc(-c4ccc(C(F)(F)F)cc4)s3)CC2)cc2cc(Oc3ccc(NC(=O)c4ccc(C(F)(F)F)cc4)cn3)ccc21 [Example 572, N-[6-(1-Methyl-2-{4-[2-(4-trifluoromethylphenyl)thiazol-5-yl-methyl]piperazine-1-carbonyl}-1H-indol-5-yloxy)pyridin-3-yl]-4-trifluoromethylbenzamide hydrobromide]
